Measured values reported in PubChem BioAssay (NCI).
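Briefly, cells in 96-well plates were exposed to five compound concentrations for 48 h, and endpoints were estimated by linear interpolation. TGI: total growth inhibition.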

Assays:
Assay in all cases: NCI-60 cell line screen, 48 h
[1] = test system: SK-OV-3 ovarian
[2] = test system: OVCAR-4 ovarian
[3] = test system: A498 renal
[4] = test system: IGROV1 ovarian
[5] = test system: SF-539 CNS
[6] = test system: UACC-62 melanoma
[7] = test system: NCI-H522 lung
[8] = test system: OVCAR-3 ovarian
[9] = test system: OVCAR-5 ovarian
[10] = test system: MALME-3M melanoma

SMILES | TGI [1] | TGI [2] | TGI [3] | TGI [4] | TGI [5] | TGI [6] | TGI [7] | TGI [8] | TGI [9] | TGI [10]
Clc1ccc2c(NCCNc3ccnc4cc(Cl)ccc34)ccnc2c1 | 31.5 µM | 35.5 µM | 32.2 µM | 36.6 µM | 25.3 µM | 33.1 µM | 35.2 µM | 28.3 µM | 33.3 µM | > 100 µM
CN[C@@H](C)[C@H](OP(=O)(O)OC1[C@@H](O)[C@H](O)C(O)[C@H](O)[C@@H]1O)c1ccccc1 (stereo not given in full) | > 100 µM | > 100 µM | > 100 µM | > 100 µM | > 100 µM | > 100 µM | > 100 µM | > 100 µM | > 100 µM | > 100 µM
O=C(CN1CCOCC1)CC(O)(C(F)(F)F)C(F)(F)F | > 100 µM | > 100 µM | > 100 µM | > 100 µM | > 100 µM | > 100 µM | > 100 µM | > 100 µM | > 100 µM | > 100 µM
